Reference: patent publication US20230120564A1, “PYRIDO[3,4-D]PYRIMIDINE DERIVATIVE AND THERAPEUTIC PHARMACEUTIC COMPOSITION COMPRISING SAME” (KOREA INSTITUTE OF SCIENCE AND TECHNOLOGY, priority 2020, published 2023)

Columns and labels:
MEKK1 = MEKK1 (Homo sapiens, UniProt Q13233); test: full kinase panel biochemical assay; conditions: single concentration of 1 μM; read-out: percent inhibition of MEKK1
Procedure: (§1) In order to measure the protein kinase inhibitory activity (% inhibition) of the compound of the present invention, biochemical assay was performed in the full kinase panel. As a test compound, Compound No. 4 was used. The percent inhibition of each kinase when treated with the test compound at a single concentration of 1 μM was measured, and the residual enzyme activity values (%) of the kinases were calculated. Kinases whose calculated residual enzyme activity values (%) was 30% or less (i.e., kinases inhibited by 70% or more) are as follows: ABL1, ABL2/ARG, ACK1, ARAF, BLK, BMX/ETK, BRAF, BRK, BTK, c-Kit, c-Src, CSK, DDR1, DDR2, EPHA1, EPHA2, EPHA3, EPHA4, EPHA5, EPHA6, EPHA7, EPHA8, EPHB1, EPHB2, EPHB3, EPHB4, ERBB2/HER2, ERBB4/HER4, FGFR1, FGFR2, FGFR3, FGR, FLT1/VEGFR1, FLT4/VEGFR3, FMS, FRK/PTK5, FYN, GCK/MAP4K2, HCK, HGK/MAP4K4, JAK1, JAK2, KDR/VEGFR2, KHS/MAP4K5, LCK, LYN, LYN B, MEKK1, MLK4, MYLK3, NEK5, P38a/MAPK14, P38b/MAPK11, PDGFRa, PDGFRb, PEAK1, RET, RIPK2, RIPK4, SIK2, SRPK1, TAOK3/JIK, TLK1, TNK1, TXK, TYK2, YES/YES1, YSK4/MAP3K19, and ZAK/MLTK.

NEK5 = NEK5 (Homo sapiens, UniProt Q6P3R8); test: full kinase panel biochemical assay; conditions: single concentration of 1 μM; read-out: percent inhibition of NEK5
Procedure: as §1

JAK2 = JAK2 (Homo sapiens, UniProt O60674); test: full kinase panel biochemical assay; conditions: single concentration of 1 μM; read-out: percent inhibition of JAK2
Sequence of JAK2 (O60674 whole entry): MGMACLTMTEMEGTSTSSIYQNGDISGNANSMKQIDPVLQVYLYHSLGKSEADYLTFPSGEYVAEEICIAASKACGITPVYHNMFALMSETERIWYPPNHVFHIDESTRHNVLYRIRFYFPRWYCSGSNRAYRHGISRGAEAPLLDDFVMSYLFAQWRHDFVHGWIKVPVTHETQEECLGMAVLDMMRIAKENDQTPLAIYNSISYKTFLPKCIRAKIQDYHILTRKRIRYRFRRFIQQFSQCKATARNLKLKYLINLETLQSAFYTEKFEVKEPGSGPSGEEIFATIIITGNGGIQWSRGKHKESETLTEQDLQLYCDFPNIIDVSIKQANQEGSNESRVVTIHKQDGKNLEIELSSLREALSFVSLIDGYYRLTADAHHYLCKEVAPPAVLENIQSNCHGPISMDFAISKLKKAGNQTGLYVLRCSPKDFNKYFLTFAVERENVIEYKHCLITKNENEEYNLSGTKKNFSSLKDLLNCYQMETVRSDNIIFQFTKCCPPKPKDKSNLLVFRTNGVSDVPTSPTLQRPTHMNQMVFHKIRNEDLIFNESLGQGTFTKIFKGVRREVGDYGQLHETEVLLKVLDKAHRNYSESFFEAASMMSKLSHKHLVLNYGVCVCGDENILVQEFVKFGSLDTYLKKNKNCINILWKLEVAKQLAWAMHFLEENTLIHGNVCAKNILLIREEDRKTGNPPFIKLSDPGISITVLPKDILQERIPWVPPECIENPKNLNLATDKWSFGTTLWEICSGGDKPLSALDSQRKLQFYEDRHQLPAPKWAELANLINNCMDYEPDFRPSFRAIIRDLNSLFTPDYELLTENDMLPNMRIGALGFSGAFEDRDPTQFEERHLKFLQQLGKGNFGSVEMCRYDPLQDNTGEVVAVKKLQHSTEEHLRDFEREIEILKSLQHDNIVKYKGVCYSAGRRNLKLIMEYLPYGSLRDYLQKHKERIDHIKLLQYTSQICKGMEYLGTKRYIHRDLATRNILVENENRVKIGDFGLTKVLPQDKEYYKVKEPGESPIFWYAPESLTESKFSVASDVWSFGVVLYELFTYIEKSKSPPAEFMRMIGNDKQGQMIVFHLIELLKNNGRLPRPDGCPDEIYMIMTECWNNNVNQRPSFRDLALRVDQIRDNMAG
Procedure: as §1

EPHA2 = EPHA2 (Homo sapiens, UniProt P29317); test: full kinase panel biochemical assay; conditions: single concentration of 1 μM; read-out: percent inhibition of EPHA2
Procedure: as §1

FLT4/VEGFR3 = FLT4/VEGFR3 (Homo sapiens, UniProt P35916); test: full kinase panel biochemical assay; conditions: single concentration of 1 μM; read-out: percent inhibition of FLT4/VEGFR3
Procedure: as §1

HGK/MAP4K4 = HGK/MAP4K4 (Homo sapiens, UniProt O95819); test: full kinase panel biochemical assay; conditions: single concentration of 1 μM; read-out: percent inhibition of HGK/MAP4K4
Sequence of HGK/MAP4K4 (O95819 whole entry): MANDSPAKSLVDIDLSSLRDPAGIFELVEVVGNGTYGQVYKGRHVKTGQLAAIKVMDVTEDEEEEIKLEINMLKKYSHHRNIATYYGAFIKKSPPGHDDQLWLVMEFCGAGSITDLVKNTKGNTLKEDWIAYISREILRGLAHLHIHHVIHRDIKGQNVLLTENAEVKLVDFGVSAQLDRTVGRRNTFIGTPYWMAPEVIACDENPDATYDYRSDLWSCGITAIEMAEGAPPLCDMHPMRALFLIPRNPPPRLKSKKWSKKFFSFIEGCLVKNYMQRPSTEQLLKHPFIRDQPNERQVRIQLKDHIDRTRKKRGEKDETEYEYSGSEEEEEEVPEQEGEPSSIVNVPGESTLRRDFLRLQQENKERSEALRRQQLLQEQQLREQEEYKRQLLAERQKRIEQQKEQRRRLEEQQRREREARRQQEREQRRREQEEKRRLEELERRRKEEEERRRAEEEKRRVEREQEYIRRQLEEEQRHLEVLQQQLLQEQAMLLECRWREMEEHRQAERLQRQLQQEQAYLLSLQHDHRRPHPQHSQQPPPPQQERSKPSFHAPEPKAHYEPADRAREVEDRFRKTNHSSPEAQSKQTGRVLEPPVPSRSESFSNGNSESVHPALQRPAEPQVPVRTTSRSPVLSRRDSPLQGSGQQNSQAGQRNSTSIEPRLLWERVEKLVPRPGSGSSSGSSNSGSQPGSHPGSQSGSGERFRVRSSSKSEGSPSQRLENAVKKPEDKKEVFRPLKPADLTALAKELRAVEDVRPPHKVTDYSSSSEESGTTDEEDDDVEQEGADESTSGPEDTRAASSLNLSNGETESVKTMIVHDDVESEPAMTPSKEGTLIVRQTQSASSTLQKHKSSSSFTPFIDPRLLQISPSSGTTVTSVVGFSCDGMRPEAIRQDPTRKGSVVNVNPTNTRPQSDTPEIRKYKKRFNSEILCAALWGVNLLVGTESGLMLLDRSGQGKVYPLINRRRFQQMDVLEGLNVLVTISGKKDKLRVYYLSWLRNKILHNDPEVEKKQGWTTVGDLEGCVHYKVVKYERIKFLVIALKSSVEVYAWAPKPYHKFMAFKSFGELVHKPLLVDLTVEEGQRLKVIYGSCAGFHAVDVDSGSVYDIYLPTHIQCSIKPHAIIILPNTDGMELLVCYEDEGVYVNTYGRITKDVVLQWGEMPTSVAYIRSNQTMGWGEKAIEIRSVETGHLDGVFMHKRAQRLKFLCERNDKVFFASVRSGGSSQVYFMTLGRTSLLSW
Procedure: as §1

TXK = TXK (Homo sapiens, UniProt P42681); test: full kinase panel biochemical assay; conditions: single concentration of 1 μM; read-out: percent inhibition of TXK
Sequence of TXK (P42681 whole entry): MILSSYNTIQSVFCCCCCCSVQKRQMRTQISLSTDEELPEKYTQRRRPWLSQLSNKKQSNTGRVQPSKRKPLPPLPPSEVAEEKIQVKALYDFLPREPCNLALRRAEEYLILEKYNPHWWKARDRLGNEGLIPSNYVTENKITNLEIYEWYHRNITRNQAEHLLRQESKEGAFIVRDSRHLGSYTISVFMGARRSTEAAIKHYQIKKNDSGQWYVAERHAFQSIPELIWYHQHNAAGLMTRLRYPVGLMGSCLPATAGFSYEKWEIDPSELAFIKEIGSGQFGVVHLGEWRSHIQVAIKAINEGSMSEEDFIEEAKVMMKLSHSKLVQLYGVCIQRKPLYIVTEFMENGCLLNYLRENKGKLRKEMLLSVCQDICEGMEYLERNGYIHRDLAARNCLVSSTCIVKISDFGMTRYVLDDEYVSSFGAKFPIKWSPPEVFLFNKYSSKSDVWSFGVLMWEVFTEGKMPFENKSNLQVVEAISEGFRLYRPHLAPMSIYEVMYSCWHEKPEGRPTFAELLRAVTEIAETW
Procedure: as §1

DDR2 = DDR2 (Homo sapiens, UniProt Q16832); test: full kinase panel biochemical assay; conditions: single concentration of 1 μM; read-out: percent inhibition of DDR2
Procedure: as §1

CSK = CSK (Homo sapiens, UniProt P41240); test: full kinase panel biochemical assay; conditions: single concentration of 1 μM; read-out: percent inhibition of CSK
Sequence of CSK (P41240 whole entry): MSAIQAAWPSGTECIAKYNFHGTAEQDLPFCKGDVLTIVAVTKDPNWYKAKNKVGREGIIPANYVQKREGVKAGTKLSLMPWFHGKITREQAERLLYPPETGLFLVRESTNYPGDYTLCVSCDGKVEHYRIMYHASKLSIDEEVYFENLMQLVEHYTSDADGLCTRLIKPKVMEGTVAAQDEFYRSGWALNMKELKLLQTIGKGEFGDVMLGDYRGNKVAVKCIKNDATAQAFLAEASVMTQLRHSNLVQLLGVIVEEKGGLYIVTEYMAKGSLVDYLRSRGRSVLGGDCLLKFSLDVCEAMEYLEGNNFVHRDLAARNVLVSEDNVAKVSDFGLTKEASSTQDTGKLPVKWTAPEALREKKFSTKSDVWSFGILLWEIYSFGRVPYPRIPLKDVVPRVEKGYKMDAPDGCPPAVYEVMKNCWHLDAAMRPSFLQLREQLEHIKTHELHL
Procedure: as §1

FMS = FMS (Homo sapiens, UniProt P07333); test: full kinase panel biochemical assay; conditions: single concentration of 1 μM; read-out: percent inhibition of FMS
Procedure: as §1

EPHA6 = EPHA6 (Homo sapiens, UniProt Q9UF33); test: full kinase panel biochemical assay; conditions: single concentration of 1 μM; read-out: percent inhibition of EPHA6
Procedure: as §1

PEAK1 = PEAK1 (Homo sapiens, UniProt Q9H792); test: full kinase panel biochemical assay; conditions: single concentration of 1 μM; read-out: percent inhibition of PEAK1
Procedure: as §1

FGR = FGR (Homo sapiens, UniProt P09769); test: full kinase panel biochemical assay; conditions: single concentration of 1 μM; read-out: percent inhibition of FGR
Sequence of FGR (P09769 whole entry): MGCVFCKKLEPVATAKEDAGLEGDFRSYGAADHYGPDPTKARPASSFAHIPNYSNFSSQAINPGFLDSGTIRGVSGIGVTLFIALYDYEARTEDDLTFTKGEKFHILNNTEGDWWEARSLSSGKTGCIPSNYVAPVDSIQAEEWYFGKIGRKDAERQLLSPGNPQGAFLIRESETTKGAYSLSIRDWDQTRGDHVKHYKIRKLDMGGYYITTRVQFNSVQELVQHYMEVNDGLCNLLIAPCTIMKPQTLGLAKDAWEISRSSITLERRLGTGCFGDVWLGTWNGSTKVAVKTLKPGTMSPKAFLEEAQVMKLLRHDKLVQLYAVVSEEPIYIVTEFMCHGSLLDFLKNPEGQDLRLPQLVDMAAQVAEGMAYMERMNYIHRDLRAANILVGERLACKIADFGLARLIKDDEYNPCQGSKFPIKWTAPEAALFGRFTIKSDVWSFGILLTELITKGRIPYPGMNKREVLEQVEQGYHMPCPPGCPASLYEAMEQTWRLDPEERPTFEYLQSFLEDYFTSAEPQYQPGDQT
Procedure: as §1

PDGFRb = PDGFRb (Homo sapiens, UniProt P09619); test: full kinase panel biochemical assay; conditions: single concentration of 1 μM; read-out: percent inhibition of PDGFRb
Sequence of PDGFRb (P09619 33-1106): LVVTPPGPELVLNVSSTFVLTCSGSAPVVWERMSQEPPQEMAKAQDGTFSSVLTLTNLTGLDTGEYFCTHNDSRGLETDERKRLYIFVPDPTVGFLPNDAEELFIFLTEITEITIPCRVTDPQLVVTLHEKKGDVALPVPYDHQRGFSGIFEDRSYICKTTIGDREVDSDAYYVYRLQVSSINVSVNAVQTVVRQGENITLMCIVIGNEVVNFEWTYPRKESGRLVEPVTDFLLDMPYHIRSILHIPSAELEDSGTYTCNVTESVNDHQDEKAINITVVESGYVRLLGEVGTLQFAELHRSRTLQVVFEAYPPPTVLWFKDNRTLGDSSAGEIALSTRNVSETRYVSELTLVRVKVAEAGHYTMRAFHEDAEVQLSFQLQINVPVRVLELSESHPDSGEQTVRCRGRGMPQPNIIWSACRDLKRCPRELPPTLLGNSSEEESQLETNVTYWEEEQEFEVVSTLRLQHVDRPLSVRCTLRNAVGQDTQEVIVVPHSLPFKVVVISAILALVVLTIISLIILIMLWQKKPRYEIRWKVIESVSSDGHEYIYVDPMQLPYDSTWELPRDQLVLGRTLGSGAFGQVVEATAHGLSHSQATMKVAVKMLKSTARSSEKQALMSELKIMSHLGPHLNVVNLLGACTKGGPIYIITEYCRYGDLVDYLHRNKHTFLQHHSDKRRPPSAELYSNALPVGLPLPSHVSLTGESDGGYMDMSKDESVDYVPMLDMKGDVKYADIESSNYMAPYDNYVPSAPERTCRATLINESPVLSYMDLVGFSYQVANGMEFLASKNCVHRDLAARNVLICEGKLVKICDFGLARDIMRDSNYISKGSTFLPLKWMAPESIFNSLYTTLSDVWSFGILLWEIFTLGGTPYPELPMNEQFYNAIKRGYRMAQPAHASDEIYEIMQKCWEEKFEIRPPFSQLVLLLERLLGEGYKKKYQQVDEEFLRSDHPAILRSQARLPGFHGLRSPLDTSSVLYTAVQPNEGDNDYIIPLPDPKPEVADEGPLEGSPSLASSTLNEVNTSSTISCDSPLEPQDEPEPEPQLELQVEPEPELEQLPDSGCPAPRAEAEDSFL
Procedure: as §1

ABL2/ARG = ABL2/ARG (Homo sapiens, UniProt P42684); test: full kinase panel biochemical assay; conditions: single concentration of 1 μM; read-out: percent inhibition of ABL2/ARG
Procedure: as §1

EPHA4 = EPHA4 (Homo sapiens, UniProt P54764); test: full kinase panel biochemical assay; conditions: single concentration of 1 μM; read-out: percent inhibition of EPHA4
Procedure: as §1

FGFR3 = FGFR3 (Homo sapiens, UniProt P22607); test: full kinase panel biochemical assay; conditions: single concentration of 1 μM; read-out: percent inhibition of FGFR3
Procedure: as §1

Ba/F3 (N-Ras G12D) = test: Inhibition of cell proliferation (GI50); assay type: cell-based; conditions: Mus musculus, BaF3; mt-NRAS (G12D) Ba/F3 cell line; read-out: Proliferation inhibitory activity (GI50, μM) Ba/F3 (N-Ras G12D)
Procedure: (§2) The inhibitory activities of the compounds of the present invention against the proliferation of the mt-NRAS (G12D) Ba/F3 and […] (mt-NRAS) cell lines were measured and the GI50 values thereof were calculated.

Ba/F3 (parental) = test: Inhibition of cell proliferation (GI50); assay type: cell-based; conditions: Mus musculus, BaF3; Ba/F3 (parental) cell line; read-out: Proliferation inhibitory activity (GI50, μM) Ba/F3 (parental)
Procedure: The inhibitory activities of the compounds of the present invention against the proliferation of the Ba/F3 (parental) cell line were measured and the GI50 values thereof were calculated.

OCI-AML3 (N-Ras Q61L) = test: Inhibition of cell proliferation (GI50); assay type: cell-based; conditions: Homo sapiens, OCI-AML-3; OCI-AML3 cell line; read-out: Proliferation inhibitory activity (GI50, μM) OCI-AML3 (N-Ras Q61L)
Procedure: as §2
Referring to the results in Table 2, it can be seen that the compound of the present invention has inhibitory activity against the proliferation of the human acute myeloid leukemia cell line (OCI-AML3) having the NRAS mutant gene, and the effect thereof is remarkable. Therefore, it can be seen that the compound of the present invention is particularly effective as a therapeutic agent for acute myeloid leukemia (AML).

Compound: Cc1ccc(Nc2ncc3cc(-c4cc(NC(=O)c5cccc(C(F)(F)F)c5)ccc4C)ncc3n2)cn1 [Compound No. 4, N-(4-methyl-3-(2-((6-methylpyridin-3-yl)amino)pyrido[3,4-d]pyrimidin-6-yl)phenyl)-3-(trifluoromethyl)benzamide]
- inhibition at 1 µM (MEKK1): ≥ 70%
- inhibition at 1 µM (NEK5): ≥ 70%
- inhibition at 1 µM (JAK2): ≥ 70%
- inhibition at 1 µM (EPHA2): ≥ 70%
- inhibition at 1 µM (FLT4/VEGFR3): ≥ 70%
- inhibition at 1 µM (HGK/MAP4K4): ≥ 70%
- inhibition at 1 µM (TXK): ≥ 70%
- inhibition at 1 µM (DDR2): ≥ 70%
- inhibition at 1 µM (CSK): ≥ 70%
- inhibition at 1 µM (FMS): ≥ 70%
- inhibition at 1 µM (EPHA6): ≥ 70%
- inhibition at 1 µM (PEAK1): ≥ 70%
- inhibition at 1 µM (FGR): ≥ 70%
- inhibition at 1 µM (PDGFRb): ≥ 70%
- inhibition at 1 µM (ABL2/ARG): ≥ 70%
- inhibition at 1 µM (EPHA4): ≥ 70%
- inhibition at 1 µM (FGFR3): ≥ 70%
- GI50 (Ba/F3 (N-Ras G12D)): < 0.5 µM
- GI50 (Ba/F3 (parental)): < 0.5 µM
- GI50 (OCI-AML3 (N-Ras Q61L)): < 0.5 µM
